Format in all cases: in vivo
The subject of experiment [1] is barnyardgrass (Echinochloa crus-galli). The experiment is described as follows: Test A preemergence, barnyardgrass. The note with it: Echinochloa crus-galli, pre-emergence, 240 h, Preemergence; for pest or weed control at 125 g/ha: 125 g ai/ha, visual injury on 0 to 100 scale (0 no effect, 100 complete control), approximately 10 days, read-out: Barnyardgrass plant response rating; for pest or weed control at 500 g/ha: 500 g ai/ha, 0 to 100 scale (0 no effect, 100 complete control), read-out: Plant response rating, Barnyardgrass. Put shortly:
(§1)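 Preemergence: seeded pots of loam plus sand received a directed soil spray. Postemergence: seedlings at one to two leaves, 2 to 10 cm high, were oversprayed. Each compound was formulated in a non-phytotoxic solvent mix that included a surfactant.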

Experiment [2] deals with ragweed (common ragweed, Ambrosia artemisiifolia). Put plainly: Test A preemergence, ragweed. The note with it: Ambrosia artemisiifolia, pre-emergence, 240 h, Preemergence; for pest or weed control at 125 g/ha: 125 g ai/ha, visual injury on 0 to 100 scale (0 no effect, 100 complete control), approximately 10 days, read-out: Ragweed plant response rating; for pest or weed control at 500 g/ha: 500 g ai/ha, 0 to 100 scale (0 no effect, 100 complete control), read-out: Plant response rating, Ragweed. Put shortly:
as §1

Experiment [3] relates to Ryegrass, Italian (Italian ryegrass, Lolium multiflorum). Put plainly: Test A postemergence, Ryegrass, Italian. The note with it: Lolium multiflorum, post-emergence, 240 h, Postemergence, 0 to 100 scale (0 no effect, 100 complete control); for pest or weed control at 125 g/ha: 125 g ai/ha, visual injury approx. 10 days; for pest or weed control at 500 g/ha: 500 g ai/ha. The procedure, abridged:
as §1

For experiment [4], the system named is pigweed (Amaranthus retroflexus). Put plainly: Test A postemergence, pigweed. The note with it: Amaranthus retroflexus, post-emergence, 240 h, Postemergence, 0 to 100 scale (0 no effect, 100 complete control); for pest or weed control at 125 g/ha: 125 g ai/ha, visual injury approx. 10 days; for pest or weed control at 500 g/ha: 500 g ai/ha. The procedure, abridged:
as §1

Where [5] appears, read: read-out: Plant response rating, Ryegrass, Italian.
Setting [6] is: visual injury, approx. 10 days, read-out: Plant response rating, Ryegrass, Italian.
Where [7] appears, read: read-out: Plant response rating, Pigweed.
Where [8] appears, read: visual injury, approx. 10 days, read-out: Plant response rating, Pigweed.
The mark [9] stands for this setting: visual injury vs untreated controls after approx. 10 days, read-out: Ryegrass, Italian plant response rating.
Setting [10] is: visual injury vs untreated controls after approx. 10 days, read-out: Pigweed plant response rating.

SMILES strings stand for the structures. Like-named read-outs stand apart in the source and are kept apart here.

Take `Cc1cc(Cl)c(NS(=O)(=O)C(F)(F)F)cc1C(=O)N1CCOCC1` [Compound 16, N-[2-Chloro-4-methyl-5-(4-morpholinylcarbonyl)phenyl]-1,1,1-trifluoromethanesulfonamide]: the pest or weed control at 125 g/ha in experiment [1] was 90%; in experiment [2] it was 80%; in experiment [3] (setting [5]), 50%; in experiment [4] (setting [7]), 70%. In addition, the pest or weed control at 500 g/ha in experiment [1] is 100%; in experiment [2], 100%; in experiment [3] (setting [6]), 70%; in experiment [4] (setting [8]) it was 90%.

For `Cc1cc(Cl)c(NS(=O)(=O)C(F)(F)F)cc1C(=O)N1CCCCC1` [Compound 18, N-[2-Chloro-4-methyl-5-(1-piperidinylcarbonyl)phenyl]-1,1,1-trifluoromethanesulfonamide], the pest or weed control at 125 g/ha in experiment [1] came out at 100%; in experiment [2], 0%; in experiment [3] (setting [5]), 10%; in experiment [4] (setting [7]), 40%. For the same compound, the pest or weed control at 500 g/ha in experiment [1] stood at 100%; in experiment [2], 30%; in experiment [3] (setting [6]) it was 40%; in experiment [4] (setting [8]), 90%.

Take `CCc1cc(-c2cc(NS(=O)(=O)C(F)(F)F)c(C)cc2C)c(=O)n(C)n1` [Compound 34, N-[5-(6-Ethyl-2,3-dihydro-2-methyl-3-oxo-4-pyridazinyl)-2,4-dimethylphenyl]-1,1,1-trifluoromethanesulfonamide]: the pest or weed control at 125 g/ha in experiment [1], in experiment [2], in experiment [3] (setting [5]) and in experiment [4] (setting [7]) was 0% throughout. Further, the pest or weed control at 500 g/ha in experiment [1] was determined as 0%; in experiment [2] it was 20%; in experiment [3] (setting [6]) it was 0%; in experiment [4] (setting [8]), 0%.

Take `Cc1cc(C)c(N(COC(=O)C(C)(C)C)S(=O)(=O)C(F)(F)F)cc1C1=NO[C@@H]2CCC[C@H]12` [Compound 100, [[2,4-Dimethyl-5-[(3aR,6aR)-3a,5,6,6a-tetrahydro-4H-cyclopent[d]isoxazol-3-yl]phenyl][(trifluoromethyl)sulfonyl]amino]methyl 2,2-dimethylpropanoate]: the pest or weed control at 125 g/ha worked out at 70% in experiment [1], 20% in experiment [2], 20% in experiment [3] (setting [5]) and 60% in experiment [4] (setting [7]). The pest or weed control at 500 g/ha in experiment [1] is 90%; in experiment [2], 80%; in experiment [3] (setting [9]), 40%; in experiment [4] (setting [10]), 90%.

With `Cc1cc(C)c(C2=NO[C@@H]3CCC[C@H]23)cc1NS(=O)(=O)C(F)(F)F` [Compound 103, N-[2,4-Dimethyl-5-[(3aR,6aR)-3a,5,6,6a-tetrahydro-4H-cyclopent[d]isoxazol-3-yl]phenyl]-1,1,1-trifluoromethanesulfonamide], the pest or weed control at 125 g/ha in experiment [1] came out at 90%; in experiment [2] it was 70%; in experiment [3] (setting [5]), 90%; in experiment [4] (setting [7]), 80%. In addition, the pest or weed control at 500 g/ha in experiment [1] is 90%; in experiment [2], 90%; in experiment [3] (setting [9]) it was 90%; in experiment [4] (setting [10]), 80%.

Regarding `Cc1cc(C)c(C2=NOC3CCOCC23)cc1NS(=O)(=O)C(F)(F)F` (stereo not drawn) [Compound 120, N-[2,4-Dimethyl-5-(3a,6,7,7a-tetrahydro-4H-pyrano[3,4-d]isoxazol-3-yl)phenyl]-1,1,1-trifluoromethanesulfonamide], the pest or weed control at 125 g/ha in experiment [1] was determined as 90%; in experiment [2], 90%; in experiment [3] (setting [5]), 90%; in experiment [4] (setting [7]), 60%. For the same compound, the pest or weed control at 500 g/ha in experiment [1] was 100%; in experiment [2] it was 100%; in experiment [3] (setting [9]), 80%; in experiment [4] (setting [10]), 90%.

Values taken from US20230278972A1, “SUBSTITUTED HALOALKYL SULFONANILIDE HERBICIDES” (FMC Corporation, priority 2020, published 2023).
